# Results: patent US20160229839A1, “Factor XIa Inhibitors” (Merck Sharp & Dohme Corp., priority 2013, published 2016)
# Target: T1, purified human Factor XIa (Homo sapiens, UniProt P03951)
# T1 construct: purified human Factor XIa; purchased Sekisui Diagnostics
# Experiment: Factor XIa Assay (fluorogenic substrate Z-Gly-Pro-Arg-AFC)
# Type: biochemical
# Settings: purified human Factor XIa 40 pM; Z-Gly-Pro-Arg-AFC 100 μM; 50 mM HEPES pH 7.4; read-out: hFXIa Ki (nM), Factor XIa inhibition
# Protocol: The effectiveness of compound of the present invention as inhibitors of Coagulation Factor XIa can be determined using a relevant purified serine protease, and an appropriate synthetic substrate. The rate of hydrolysis of the chromogenic or fluorogenic substrate by the relevant serine protease was measured both in the absence and presence of compounds of the present invention. Assays were conducted at room temperature or at 37° C. […] A decrease in the rate of fluorescence change in the presence of inhibitor is indicative of enzyme inhibition. Such methods are known to one skilled in the art. The results of this assay are expressed as the inhibitory constant, Ki.
# Factor XIa determinations were made in 50 mM HEPES buffer at pH 7.4 containing 150 mM NaCl, 5 mM CaCl2, and 0.1% PEG 8000 (polyethylene glycol; J T Baker or Fisher Scientific). Determinations were made using purified human Factor XIa at a final concentration of 40 pM (Sekisui Diagnostics) and he synthetic substrate, Z-Gly-Pro-Arg-AFC, TFA salt (Sigma #C0980) at a concentration of 100 μM.
# Activity assays were performed by diluting a stock solution of substrate at least tenfold to a final concentration ≦0.1 Km into a solution containing enzyme or enzyme equilibrated with inhibitor. Times required to achieve equilibration between enzyme and inhibitor were determined in control experiments. Initial velocities of product formation in the absence (Vo) or presence of inhibitor (Vi) were measured. Assuming competitive inhibition, and that unity is negligible compared Km/[S], [I]/e, and [I]/e (where [S], [I], and e respectively represent the total concentrations, of substrate, inhibitor and enzyme), the equilibrium constant (Ki) for dissociation of the inhibitor from the enzyme can be obtained from the dependence of Vo/Vi on [I] shown in the following equation.
# T1 sequence (P03951 388-625 limits assumed): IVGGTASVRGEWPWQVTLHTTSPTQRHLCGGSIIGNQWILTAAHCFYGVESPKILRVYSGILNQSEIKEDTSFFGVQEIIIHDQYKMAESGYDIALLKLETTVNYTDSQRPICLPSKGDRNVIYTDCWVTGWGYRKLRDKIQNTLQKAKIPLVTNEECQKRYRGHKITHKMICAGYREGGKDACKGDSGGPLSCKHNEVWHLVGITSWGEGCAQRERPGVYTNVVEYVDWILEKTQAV
# T1 sequence (P03951 19-387 partner limits assumed): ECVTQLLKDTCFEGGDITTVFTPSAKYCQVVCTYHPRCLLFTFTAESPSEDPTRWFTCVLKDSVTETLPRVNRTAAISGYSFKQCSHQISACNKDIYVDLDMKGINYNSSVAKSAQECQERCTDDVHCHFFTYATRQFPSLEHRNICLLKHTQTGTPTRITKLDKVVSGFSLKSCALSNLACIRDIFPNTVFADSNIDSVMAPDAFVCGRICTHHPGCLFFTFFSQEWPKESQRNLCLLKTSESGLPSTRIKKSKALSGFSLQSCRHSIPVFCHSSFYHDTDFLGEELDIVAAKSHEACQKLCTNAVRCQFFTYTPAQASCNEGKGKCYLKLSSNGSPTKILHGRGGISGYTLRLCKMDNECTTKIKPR
row,SMILES,Ki
1,"CC(C)(C)OC(=O)c1ccc(NC(=O)C2C(c3ccccc3)CCCN2C(=O)/C=C/c2cc(Cl)ccc2-n2cnnn2)cc1 (racemic) [Example 1-1, (E)-tert-butyl 4-(1-(3-(5-chloro-2-(1H-tetrazol-1-yl)phenyl)acryloyl)-3-phenylpiperidine-2-carboxamido)benzoate]",> 10000 nM
2,"O=C(O)c1ccc(NC(=O)[C@@H]2[C@H](c3ccccc3)CCCN2C(=O)/C=C/c2cc(Cl)ccc2-n2cnnn2)cc1 (racemic) [Example 1-2, (E)-1-(2-(3-(2-((4-carboxyphenyl)carbamoyl)-3-phenylpiperidin-1-yl)-3-oxoprop-1-en-1-yl)-4-chlorophenyl)-1H-tetrazol-2-ium 2,2,2-trifluoroacetate]",80.9 nM
3,"NC1CCc2cc(C(=O)N3CCCC(c4ccccc4)C3C(=O)Nc3ccc(C(=O)O)cc3)ccc21 (racemic) [Example 1-14, 4-(1-(1-amino-2,3-dihydro-1H-indene-5-carbonyl)-3-phenylpiperidine-2-carboxamido)benzoic acid]",572 nM
4,"COC(=O)c1cccc(-c2c[nH]c(C3C(c4ccccc4)CCCN3C(=O)/C=C/c3cc(Cl)ccc3-n3cnnn3)n2)c1 (racemic) [Example 1-54, (E)-methyl 3-(2-(1-(3-(5-chloro-2-(1H-tetrazol-1-yl)phenyl)acryloyl)-3-phenylpiperidin-2-yl)-1H-imidazol-4-yl)benzoate]",> 10000 nM
5,"O=C(O)c1ccc(NC(=O)[C@@H]2[C@H](c3ccccc3)CCCN2C(=O)/C=C/c2cc(Cl)ccc2-n2cnnn2)cc1 (single isomer, unassigned) [Example 1-57]",7.6 nM
6,"O=C(O)c1cccc(-c2c[nH]c([C@@H]3[C@H](c4ccccc4)CCCN3C(=O)/C=C/c3cc(Cl)ccc3-n3cnnn3)n2)c1 (single isomer, unassigned) [Example 1-69]",19.3 nM
7,"O=C(O)c1cccc(-c2c[nH]c([C@H]3[C@@H](c4ccccc4)CCCN3C(=O)/C=C/c3cc(Cl)ccc3-n3cnnn3)n2)c1 (single isomer, unassigned) [Example 1-70]",5730 nM
8,"CC(C)(C)OC(=O)c1ccc(NC(=O)C2C(C3CCCCC3)CCCN2C(=O)/C=C/c2cc(Cl)ccc2-n2cnnn2)cc1 (stereo not shown) [Example 1-3, (E)-tert-butyl 4-(1-(3-(5-chloro-2-(1H-tetrazol-1-yl)phenyl)acryloyl)-3-cyclohexylpiperidine-2-carboxamido)benzoate]",> 10000 nM
9,"CC(C)(C)OC(=O)C1CCC(NC(=O)C2C(C3CCCCC3)CCCN2C(=O)/C=C/c2cc(Cl)ccc2-n2cnnn2)CC1 (stereo not shown) [Example 1-4, (E)-tert-butyl 4-(1-(3-(5-chloro-2-(1H-tetrazol-1-yl)phenyl)acryloyl)-3-cyclohexylpiperidine-2-carboxamido)cyclohexanecarboxylate]",> 10000 nM
10,"O=C(O)c1ccc(NC(=O)C2C(C3CCCCC3)CCCN2C(=O)/C=C/c2cc(Cl)ccc2-n2cnnn2)cc1 (stereo not shown) [Example 1-5, (E)-1-(2-(3-(2-((4-carboxyphenyl)carbamoyl)-3-cyclohexylpiperidin-1-yl)-3-oxoprop-1-en-1-yl)-4-chlorophenyl)-1H-tetrazol-2-ium 2,2,2-trifluoroacetate]",44 nM
11,"O=C(O)C1CCC(NC(=O)C2C(C3CCCCC3)CCCN2C(=O)/C=C/c2cc(Cl)ccc2-n2cnnn2)CC1 (stereo not shown) [Example 1-6, 2,2,2-trifluoroacetate]",5250 nM
12,"O=C(/C=C/c1cc(Cl)ccc1-n1cnnn1)N1CCCC(c2ccccc2)C1c1nc(-c2cccnc2)c[nH]1 (stereo not shown) [Example 1-7, (E)-3-(5-chloro-2-(1H-tetrazol-1-yl)phenyl)-1-(3-phenyl-2-(4-(pyridin-3-yl)-1H-imidazol-2-yl)piperidin-1-yl)prop-2-en-1-one]",905 nM
13,"N=C(N)N1CCC(C(=O)N2CCCC(c3ccccc3)C2C(=O)Nc2ccc(C(=O)O)cc2)CC1 (stereo not shown) [Example 1-8, 4-(1-(1-carbamimidoylpiperidine-4-carbonyl)-3-phenylpiperidine-2-carboxamido)benzoic acid]",15.4 nM
14,"O=C(O)c1ccc(NC(=O)C2C(c3ccccc3)CCCN2C(=O)CCc2cc(Cl)ccc2-n2cnnn2)cc1 (stereo not shown) [Example 1-9, 4-(1-(3-(5-chloro-2-(1H-tetrazol-1-yl)phenyl)propanoyl)-3-phenylpiperidine-2-carboxamido)benzoic acid]",57.1 nM
15,"O=C(O)c1ccc(NC(=O)C2C(c3cccc(F)c3)CCCN2C(=O)/C=C/c2cc(Cl)ccc2-n2cnnn2)cc1 (stereo not shown) [Example 1-10, (E)-4-(1-(3-(5-chloro-2-(H-tetrazol-1-yl)phenyl)acryloyl)-3-(3-fluorophenyl)piperidine-2-carboxamido)benzoic acid]",18.1 nM
16,"O=C(/C=C/c1cc(Cl)ccc1-n1cnnn1)N1CCCC(c2ccccc2)C1c1nc(-c2cccnc2)c[nH]1 [Example 1-11, (E)-3-(5-chloro-2-(1H-tetrazol-1-yl)phenyl)-1-(3-phenyl-2-(4-(pyridin-3-yl)-1H-imidazol-2-yl)piperidin-1-yl)prop-2-en-1-one (2R,3R)]",8650 nM
17,"O=C(/C=C/c1cc(Cl)ccc1-n1cnnn1)N1CCCC(c2ccccc2)C1c1nc(-c2cccnc2)c[nH]1 [Example 1-12, (E)-3-(5-chloro-2-(1H-tetrazol-1-yl)phenyl)-1-(3-phenyl-2-(4-(pyridin-3-yl)-1H-imidazol-2-yl)piperidin-1-yl)prop-2-en-1-one (2S,3S)]",570 nM
18,"O=C(/C=C/c1cc(Cl)ccc1-n1cnnn1)N1CCCC(c2ccccc2)C1c1nc(-c2ccc(F)cc2)c[nH]1 (stereo not shown) [Example 1-13, (E)-3-(5-chloro-2-(1H-tetrazol-1-yl)phenyl)-1-(2-(4-(4-fluorophenyl)-1H-imidazol-2-yl)-3-phenylpiperidin-1-yl)prop-2-en-1-one]",> 10000 nM
19,"CC(C)(N)c1ccc(C(=O)N2CCCC(c3ccccc3)C2C(=O)Nc2ccc(C(=O)O)cc2)cc1 (stereo not shown) [Example 1-15, 4-(1-(4-(2-aminopropan-2-yl)benzoyl)-3-phenylpiperidine-2-carboxamido)benzoic acid]",> 10000 nM
20,"N[C@H]1CCc2cc(C(=O)N3CCCC(c4ccccc4)C3C(=O)Nc3ccc(C(=O)O)cc3)ccc21 (stereo partly drawn) [Example 1-16, 4-(1-((S)-1-amino-2,3-dihydro-1H-indene-5-carbonyl)-3-phenylpiperidine-2-carboxamido)benzoic acid]",619 nM
21,"O=C(O)c1ccc(NC(=O)C2C(c3cccc(C(F)(F)F)c3)CCCN2C(=O)/C=C/c2cc(Cl)ccc2-n2cnnn2)cc1 (stereo not shown) [Example 1-17, ammonium (E)-4-(1-(3-(5-chloro-2-(1H-tetrazol-1-yl)phenyl)acryloyl)-3-(3-(trifluoromethyl)phenyl)piperidine-2-carboxamido)benzoate]",2850 nM
22,"O=C(O)c1ccc(NC(=O)C2C(c3ccc(F)cc3)CCCN2C(=O)/C=C/c2cc(Cl)ccc2-n2cnnn2)cc1 (stereo not shown) [Example 1-18, ammonium (E)-4-(1-(3-(5-chloro-2-(1H-tetrazol-1-yl)phenyl)acryloyl)-3-(4-fluorophenyl)piperidine-2-carboxamido)benzoate]",25.3 nM
23,"O=C(O)C1CCC(NC(=O)C2C(c3ccc(F)cc3F)CCCN2C(=O)/C=C/c2cc(Cl)ccc2-n2cnnn2)CC1 (stereo not shown) [Example 1-19, ammonium (E)-4-(1-(3-(5-chloro-2-(1H-tetrazol-1-yl)phenyl)acryloyl)-3-(2,4-difluorophenyl)piperidine-2-carboxamido)cyclohexanecarboxylate]",> 10000 nM
24,"NCc1ccc(C(=O)N2CCCC(c3ccccc3)C2C(=O)Nc2ccc(C(=O)O)cc2)cc1 (stereo not shown) [Example 1-20, (4-(2-((4-carboxyphenyl)carbamoyl)-3-phenylpiperidine-1-carbonyl)phenyl)methanaminium 2,2,2-trifluoroacetate]",627 nM
25,"O=C(/C=C/c1cc(Cl)ccc1-n1cnnn1)N1CCCC(c2ccccc2)C1c1nc(-c2ccc(Cl)cc2)c[nH]1 (stereo not shown) [Example 1-21, (E)-3-(5-chloro-2-(1H-tetrazol-1-yl)phenyl)-1-(2-(4-(4-chlorophenyl)-1H-imidazol-2-yl)-3-phenylpiperidin-1-yl)prop-2-en-1-one]",> 10000 nM
26,"N#Cc1ccc(-c2c[nH]c(C3C(c4ccccc4)CCCN3C(=O)/C=C/c3cc(Cl)ccc3-n3cnnn3)n2)cc1 (stereo not shown) [Example 1-22, (E)-4-(2-(1-(3-(5-chloro-2-(1H-tetrazol-1-yl)phenyl)acryloyl)-3-phenylpiperidin-2-yl)-1H-imidazol-4-yl)benzonitrile]",3260 nM
27,"O=C(CCc1cc(Cl)ccc1-n1cnnn1)N1CCCC(c2ccccc2)C1c1nc(-c2ccc(Cl)cc2)c[nH]1 (stereo not shown) [Example 1-23, 3-(5-chloro-2-(1H-tetrazol-1-yl)phenyl)-1-(2-(4-(4-chlorophenyl)-1H-imidazol-2-yl)-3-phenylpiperidin-1-yl)propan-1-one]",> 10000 nM
28,"N#Cc1ccc(-c2c[nH]c(C3C(c4ccccc4)CCCN3C(=O)CCc3cc(Cl)ccc3-n3cnnn3)n2)cc1 (stereo not shown) [Example 1-24, 4-(2-(1-(3-(5-chloro-2-(1H-tetrazol-1-yl)phenyl)propanoyl)-3-phenylpiperidin-2-yl)-1H-imidazol-4-yl)benzonitrile]",8510 nM
